The values below come from ChEMBL document CHEMBL2380240, “Discovery, synthesis, selectivity modulation and DMPK characterization of 5-azaspiro[2.4]heptanes as potent orexin receptor antagonists” (Bioorg Med Chem Lett, 2013).

Molecules are shown by their SMILES. Some results are limits rather than exact numbers.

In series [1] the target is T1, CYP2C19 (Homo sapiens, UniProt P33261). The series can be described thus: Inhibition of human recombinant CYP2C19 at 3 uM by fluorimetric assay. It counts as ADME.
Series [2] deals with T2, CYP2C9 (Homo sapiens, UniProt P11712). The experiment in a line: Inhibition of human recombinant CYP2C9 at 3 uM by fluorimetric assay. It counts as ADME.
Series [3] deals with T3, CYP1A2 (Homo sapiens, UniProt P05177).
T3 sequence (P05177 whole entry): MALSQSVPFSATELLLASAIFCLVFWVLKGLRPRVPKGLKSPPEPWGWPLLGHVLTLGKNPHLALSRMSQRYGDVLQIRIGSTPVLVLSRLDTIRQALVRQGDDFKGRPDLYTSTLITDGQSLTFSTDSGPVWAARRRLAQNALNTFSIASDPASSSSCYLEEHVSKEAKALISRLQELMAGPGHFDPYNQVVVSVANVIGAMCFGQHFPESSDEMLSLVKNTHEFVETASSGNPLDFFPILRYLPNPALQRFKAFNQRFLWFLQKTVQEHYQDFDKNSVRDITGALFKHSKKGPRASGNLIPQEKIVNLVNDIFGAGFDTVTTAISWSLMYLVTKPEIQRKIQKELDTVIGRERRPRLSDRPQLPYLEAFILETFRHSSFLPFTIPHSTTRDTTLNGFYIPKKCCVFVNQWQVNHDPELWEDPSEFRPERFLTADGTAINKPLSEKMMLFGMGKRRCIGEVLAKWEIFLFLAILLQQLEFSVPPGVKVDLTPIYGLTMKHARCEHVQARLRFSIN
The series can be described thus: Inhibition of human recombinant CYP1A2 at 3 uM by fluorimetric assay. It counts as ADME.

Series [4] has as its target T4, CYP3A4 (Homo sapiens, UniProt P08684). The series can be described thus: Inhibition of human recombinant CYP3A4 using BFC as substrate at 3 uM by fluorimetric assay. The note with it: recombinant CYP3A4, probe BFC. It counts as ADME.
For series [5], the target named is T5, CYP2D6 (Homo sapiens, UniProt P10635). The experiment in a line: Inhibition of human recombinant CYP2D6 at 3 uM by fluorimetric assay. Format: ADME.
Series [6] has as its target T4, CYP3A4. The series can be described thus: Inhibition of human recombinant CYP3A4 using DBF as substrate at 3 uM by fluorimetric assay. Format: ADME. The note with it: recombinant CYP3A4, probe DBF.
The target in series [7] is T6, Orexin/Hypocretin receptor type 1 (Homo sapiens) (UniProt O43613).
T6 sequence (whole entry): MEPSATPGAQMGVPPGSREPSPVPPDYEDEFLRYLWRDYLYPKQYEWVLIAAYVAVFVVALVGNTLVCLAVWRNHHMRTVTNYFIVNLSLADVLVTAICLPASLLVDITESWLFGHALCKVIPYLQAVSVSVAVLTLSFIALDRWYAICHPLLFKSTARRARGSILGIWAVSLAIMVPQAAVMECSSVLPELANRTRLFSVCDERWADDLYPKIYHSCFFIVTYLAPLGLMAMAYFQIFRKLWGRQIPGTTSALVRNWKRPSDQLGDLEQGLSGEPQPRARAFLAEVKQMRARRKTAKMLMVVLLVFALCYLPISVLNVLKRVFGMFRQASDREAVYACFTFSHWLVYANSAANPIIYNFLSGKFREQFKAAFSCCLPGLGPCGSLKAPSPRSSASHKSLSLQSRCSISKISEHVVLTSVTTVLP
The experiment in a line: Antagonist activity at human recombinant OX1 receptor expressed in CHO cells assessed as OXA-stimulated intracellular calcium mobilization by FLIPR assay. Format: functional, cell-based. (Calcium assays in cells follow changes in intracellular calcium, usually with a dye or a luminescent sensor.)

Series [8] concerns the target T7, Orexin receptor type 2 (Homo sapiens) (UniProt O43614).
T7 sequence (whole entry): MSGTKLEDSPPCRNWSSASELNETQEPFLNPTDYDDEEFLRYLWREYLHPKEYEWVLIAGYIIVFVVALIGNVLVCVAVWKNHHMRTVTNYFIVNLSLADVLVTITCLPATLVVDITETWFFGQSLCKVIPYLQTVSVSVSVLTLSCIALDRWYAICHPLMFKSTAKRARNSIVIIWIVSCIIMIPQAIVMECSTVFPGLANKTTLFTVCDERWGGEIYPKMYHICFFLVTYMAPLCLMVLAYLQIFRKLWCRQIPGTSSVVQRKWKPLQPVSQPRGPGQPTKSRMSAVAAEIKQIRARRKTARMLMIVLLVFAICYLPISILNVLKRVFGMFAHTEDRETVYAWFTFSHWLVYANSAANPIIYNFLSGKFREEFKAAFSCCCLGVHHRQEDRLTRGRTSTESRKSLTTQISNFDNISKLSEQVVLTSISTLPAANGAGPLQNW
The experiment in a line: Antagonist activity at human recombinant OX2 receptor expressed in HEK293 cells assessed as OXB-stimulated intracellular calcium mobilization by FLIPR assay. Format: functional, cell-based.

Series [9] concerns the target T2, CYP2C9. The series can be described thus: Inhibition of human recombinant CYP2C9 at 1 uM by fluorimetric assay. It counts as ADME.
Series [10] has as its target T1, CYP2C19. The experiment in a line: Inhibition of human recombinant CYP2C19 at 1 uM by fluorimetric assay. It counts as ADME.
Series [11] deals with T3, CYP1A2. The series can be described thus: Inhibition of human recombinant CYP1A2 at 1 uM by fluorimetric assay. It counts as ADME.
Series [12] concerns the target T5, CYP2D6. The experiment in a line: Inhibition of human recombinant CYP2D6 at 1 uM by fluorimetric assay. It counts as ADME.
The target of series [13] is T4, CYP3A4. The series can be described thus: Inhibition of human recombinant CYP3A4 using BFC as substrate at 1 uM by fluorimetric assay. It counts as ADME. The note with it: recombinant CYP3A4, probe BFC.
Series [14] has as its target T4, CYP3A4. The series can be described thus: Inhibition of human recombinant CYP3A4 using DBF as substrate at 1 uM by fluorimetric assay. Format: ADME. The conditions noted are these: recombinant CYP3A4, probe DBF.

T2 sequence (P11712 whole entry): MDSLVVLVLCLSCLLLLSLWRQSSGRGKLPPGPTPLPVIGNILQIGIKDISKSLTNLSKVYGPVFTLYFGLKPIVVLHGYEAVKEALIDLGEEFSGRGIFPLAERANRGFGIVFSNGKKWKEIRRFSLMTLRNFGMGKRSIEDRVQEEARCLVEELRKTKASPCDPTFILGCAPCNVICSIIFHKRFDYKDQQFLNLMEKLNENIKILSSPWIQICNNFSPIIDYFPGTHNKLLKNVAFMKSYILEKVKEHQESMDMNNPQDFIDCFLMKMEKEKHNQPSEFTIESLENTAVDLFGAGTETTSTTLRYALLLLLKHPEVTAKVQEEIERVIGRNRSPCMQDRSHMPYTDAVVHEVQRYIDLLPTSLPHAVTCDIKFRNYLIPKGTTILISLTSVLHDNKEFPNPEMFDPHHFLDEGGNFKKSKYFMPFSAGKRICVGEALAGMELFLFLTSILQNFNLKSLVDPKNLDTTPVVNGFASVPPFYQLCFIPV
T1 sequence (P33261 whole entry): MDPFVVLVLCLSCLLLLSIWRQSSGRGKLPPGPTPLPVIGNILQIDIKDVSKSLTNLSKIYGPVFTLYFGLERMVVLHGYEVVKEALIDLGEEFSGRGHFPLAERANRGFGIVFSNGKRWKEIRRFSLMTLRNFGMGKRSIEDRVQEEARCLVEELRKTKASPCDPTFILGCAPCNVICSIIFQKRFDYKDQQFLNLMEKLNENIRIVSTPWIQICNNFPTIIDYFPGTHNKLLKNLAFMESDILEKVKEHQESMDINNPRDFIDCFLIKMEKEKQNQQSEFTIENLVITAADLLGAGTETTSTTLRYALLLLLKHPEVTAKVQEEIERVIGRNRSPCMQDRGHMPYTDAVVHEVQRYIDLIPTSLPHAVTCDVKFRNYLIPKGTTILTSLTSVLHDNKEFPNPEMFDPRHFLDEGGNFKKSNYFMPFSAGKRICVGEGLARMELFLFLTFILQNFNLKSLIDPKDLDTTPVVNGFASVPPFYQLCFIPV
T4 sequence (P08684 whole entry): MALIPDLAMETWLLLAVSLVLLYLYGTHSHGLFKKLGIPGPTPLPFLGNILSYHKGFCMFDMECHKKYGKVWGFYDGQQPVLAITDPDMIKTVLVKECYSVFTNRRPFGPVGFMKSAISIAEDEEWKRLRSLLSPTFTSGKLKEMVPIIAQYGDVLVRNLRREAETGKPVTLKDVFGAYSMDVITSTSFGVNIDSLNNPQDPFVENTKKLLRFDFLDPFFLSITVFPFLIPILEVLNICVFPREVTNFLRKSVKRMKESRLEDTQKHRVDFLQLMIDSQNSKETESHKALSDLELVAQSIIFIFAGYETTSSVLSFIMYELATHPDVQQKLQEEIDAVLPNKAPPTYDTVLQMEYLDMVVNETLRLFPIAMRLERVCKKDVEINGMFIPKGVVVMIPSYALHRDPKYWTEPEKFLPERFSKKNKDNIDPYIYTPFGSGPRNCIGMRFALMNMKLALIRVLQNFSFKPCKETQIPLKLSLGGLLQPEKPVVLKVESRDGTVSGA
T5 sequence (P10635 whole entry): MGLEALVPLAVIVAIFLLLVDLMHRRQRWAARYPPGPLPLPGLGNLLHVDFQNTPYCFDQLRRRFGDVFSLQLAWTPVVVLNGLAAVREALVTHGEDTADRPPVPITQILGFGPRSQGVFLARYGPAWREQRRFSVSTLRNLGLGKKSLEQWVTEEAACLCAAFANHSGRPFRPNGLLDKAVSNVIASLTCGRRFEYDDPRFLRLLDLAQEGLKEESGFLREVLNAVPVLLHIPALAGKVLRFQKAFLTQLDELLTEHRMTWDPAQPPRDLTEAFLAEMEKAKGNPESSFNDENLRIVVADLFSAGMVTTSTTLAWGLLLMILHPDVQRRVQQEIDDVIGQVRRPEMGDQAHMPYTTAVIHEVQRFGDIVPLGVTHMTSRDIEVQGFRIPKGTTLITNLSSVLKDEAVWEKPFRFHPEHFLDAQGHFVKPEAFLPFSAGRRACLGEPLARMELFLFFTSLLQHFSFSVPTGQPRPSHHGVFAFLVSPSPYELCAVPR

For `Cc1ccc(OCc2ccccc2)c(C(=O)N2CC3(CC3)C[C@H]2CNc2ccc(C(F)(F)F)cn2)n1`, the inhibition at 3 µM on CYP2C19 [1], at CYP2C9 [2], at CYP1A2 [3], at CYP3A4 [4], at CYP2D6 [5] and at CYP3A4 [6] was below 71% in each case. In addition, the negative-log Kb (pKb) in [7] and in series [8] was 8.6 in each case.

`O=C(c1nc(C(F)(F)F)ccc1-c1ncccn1)N1CC2(CC2)C[C@H]1CNc1ccc(C(F)(F)F)cn1`: the inhibition at 3 µM on CYP2C19 [1], on CYP2C9 [2], on CYP1A2 [3], on CYP3A4 [4], on CYP2D6 [5] and at CYP3A4 [6] was below 39% in each case. Moreover, the figures for the negative-log Kb (pKb) in series [7] and in series [8] were 6.7 and 5, respectively.

`Cc1ccc(-c2ncccn2)c(C(=O)N2CC3(CC3)C[C@H]2CNc2ccc(C(F)(F)F)cn2)c1`: the pKb came out at 8.7 in series [7] and 6.6 in [8].

Consider `Cc1ccnc(NC[C@@H]2CC3(CC3)CN2C(=O)c2nc(C)sc2-c2ccccc2)n1`, for which the pKb came to 6.1 in [7] and 7 in series [8].

Consider `O=C(c1cc(Cl)ccc1-c1ncccn1)N1CC2(CC2)C[C@H]1CNc1ccc(C(F)(F)F)cn1`, for which the inhibition at 3 µM on CYP2C19 [1], at CYP2C9 [2], at CYP1A2 [3], at CYP3A4 [4], at CYP2D6 [5] and on CYP3A4 [6] was below 22% each time. Further, the negative-log Kb (pKb) in series [7] worked out at 8.1; in series [8], 7.2.

Take `Cc1nc(C(=O)N2CCC3(CC3)C[C@H]2CNc2ccc(Cl)cn2)c(-c2ccccc2)s1`: the pKb was 7.9 in series [7] and below 5 in series [8].

For `Cc1ccc(-n2nccn2)c(C(=O)N2CCC3(CC3)C[C@H]2CNc2cccc(C)n2)c1`, the pKb in [7] was 8.2; in series [8] it was below 5.

In the case of `Cc1nc(C(=O)N2CC3(CC3)C[C@H]2CNc2ncc(Cl)cn2)c(-c2ccccc2)s1`, the pKb in series [7] and in series [8] was 6.8 in each case.

Turning to `Cc1ccc(-c2ncccn2)c(C(=O)N2CCC3(CC3)C[C@H]2CNc2ccc(Cl)cn2)c1`, the pKb in series [7] was 7.6; in series [8] it was below 5.

For `Cc1cnn(-c2ccc(C)nc2C(=O)N2CC3(CC3)C[C@H]2CNc2ccc(C(F)(F)F)cn2)c1`, the inhibition at 3 µM at CYP2C19 [1], on CYP2C9 [2], on CYP1A2 [3], on CYP3A4 [4], at CYP2D6 [5] and on CYP3A4 [6] was below 85% each time. The negative-log Kb (pKb) in [7] amounted to 8.9; in series [8] it was 8.3.

For `O=C(c1nc(OC(F)(F)F)ccc1-c1ncccn1)N1CC2(CC2)C[C@H]1CNc1ccc(C(F)(F)F)cn1`, the inhibition at 3 µM on CYP2C19 [1], at CYP2C9 [2], on CYP1A2 [3], at CYP3A4 [4], on CYP2D6 [5] and at CYP3A4 [6] was below 58% throughout. The pKb was 7 in series [7] and 6.9 in series [8].

In the case of `O=C(c1ncccc1-c1ncccn1)N1CC2(CC2)C[C@H]1CNc1ccc(C(F)(F)F)cn1`, the inhibition at 3 µM at CYP2C19 [1], on CYP2C9 [2], at CYP1A2 [3], on CYP3A4 [4], at CYP2D6 [5] and at CYP3A4 [6] was below 47% throughout. Moreover, the values for the negative-log Kb (pKb) in [7] and in [8] were 7.7 and 5, respectively.

Regarding `Cc1ccc(-n2nccn2)c(C(=O)N2CC3(CC3)C[C@H]2CNc2ccc(Cl)cn2)c1`, the negative-log Kb (pKb) in series [7] is 8.1; in series [8], below 5.

Turning to `O=C(c1cc(Cl)ccc1-c1ncccn1)N1CC2(CC2)C[C@H]1CNc1cc(C(F)(F)F)ccn1`, the inhibition at 1 µM at CYP2C9 [9], at CYP2C19 [10], on CYP1A2 [11], on CYP2D6 [12], on CYP3A4 [13] and at CYP3A4 [14] was below 57% each time. In addition, the values for the pKb in [7] and in [8] were 8.1 and 7.1, respectively.

Turning to `Cc1nc(C(=O)N2CC3(CC3)C[C@H]2CNc2ccc(Cl)cn2)c(-c2ccccc2)s1`, the figures for the negative-log Kb (pKb) in series [7] and in series [8] were 8.3 and 7.1, respectively.

`Cc1nc(C(=O)N2CC3(CC3)C[C@H]2CNc2cc(C(F)(F)F)ccn2)c(-c2ccccc2)s1`: the inhibition at 1 µM on CYP2C9 [9], on CYP2C19 [10], at CYP1A2 [11], on CYP2D6 [12], on CYP3A4 [13] and at CYP3A4 [14] was below 55% each time. Besides, the values for the negative-log Kb (pKb) in [7] and in series [8] were 8.2 and 8.5, respectively.

Regarding `Cc1ccc(-c2ncccn2)c(C(=O)N2CC3(CC3)C[C@H]2CNc2cc(C#N)ccn2)n1`, the inhibition at 1 µM at CYP2C9 [9], on CYP2C19 [10], at CYP1A2 [11], on CYP2D6 [12], at CYP3A4 [13] and on CYP3A4 [14] was below 17% each time.

In the case of `N#Cc1ccc(-c2ncccn2)c(C(=O)N2CC3(CC3)C[C@H]2CNc2ccc(C(F)(F)F)cn2)c1`, the inhibition at 3 µM at CYP2C19 [1], at CYP2C9 [2], at CYP1A2 [3], on CYP3A4 [4], on CYP2D6 [5] and on CYP3A4 [6] was below 32% each time. In addition, the pKb turned out to be 8 in [7] and 8.1 in series [8].

Regarding `Cc1cccc(NC[C@@H]2CC3(CC3)CN2C(=O)c2nc(C)sc2-c2ccccc2)n1`, the pKb in series [7] was found to be 7.3; in series [8] it was 7.6.

Take `Cc1ccc(-n2nccn2)c(C(=O)N2CCC3(CC3)C[C@H]2CNc2ccc(Cl)cn2)c1`: the figures for the pKb in series [7] and in series [8] were 7.5 and below 5, respectively.

Regarding `Cc1nc(C(=O)N2CCC3(CC3)C[C@H]2CNc2ccc(C(F)(F)F)cn2)c(-c2ccccc2)s1`, the figures for the pKb in [7] and in series [8] were 7.7 and below 5, respectively.

Take `Cc1ccc(-c2nccs2)c(C(=O)N2CC3(CC3)C[C@H]2CNc2ccc(C(F)(F)F)cn2)n1`: the inhibition at 3 µM on CYP2C19 [1], at CYP2C9 [2], at CYP1A2 [3], at CYP3A4 [4], on CYP2D6 [5] and at CYP3A4 [6] was below 89% throughout. The negative-log Kb (pKb) stood at 8.6 in series [7] and 8 in series [8].

Regarding `CS(=O)(=O)c1ccc(-c2ccccc2)c(C(=O)N2CC3(CC3)C[C@H]2CNc2ccc(C(F)(F)F)cn2)c1`, the inhibition at 3 µM at CYP2C19 [1], at CYP2C9 [2], at CYP1A2 [3], on CYP3A4 [4], at CYP2D6 [5] and at CYP3A4 [6] was below 41% throughout. Further, the pKb amounted to 6.7 in [7] and 7.1 in [8].

What is called inhibition is the percentage by which the read-out fell short of the control. What is called pKb is the negative decadic logarithm of the Kb, by convention in mol/L.
